Values of other authors in patent US20050003341A1, “Drug discovery assays based on the biology of atherosclerosis, cancer, and alopecia” (priority 2003, published 2005).
Where two headings read alike, the source gives them in different places.

Experiments:
[1] = system: papilla cells; conditions: 14 days; testosterone 345 nM, DHT 345 mM as printed
[2] = system: ERK
[3] = system: TF; conditions: cultured monocytes
[4] = system: ACE; conditions: zofenopril 0.05 or 1, captopril 5, enalapril 0.5 mg/kg/day
[5] = system: TF; conditions: mononuclear leukocytes exposed to endotoxin
[6] = system: hamsters
[7] = system: ACE; conditions: after 6 weeks
[8] = system: Moloney murine leukemia virus (MMuLV); Rous sarcoma virus (RSV); conditions: chick embryo fibroblasts
[9] = system: AR mRNA; conditions: 50 μg/ml, 4 hours
[10] = system: ACE; conditions: 5 mg/day vs placebo, 4 years
[11] = system: TF antigen; conditions: starting on day 3, significant on day 28
[12] = system: ACE
[13] = system: ACE; conditions: 5 or 10 mg/day vs placebo, 4 years
[14] = system: ACE; remark: listed apart in the source
[15] = system: TF mRNA; conditions: obese mice, 10 to 20 weeks of age
[16] = system: AR mRNA; conditions: LNCaP cells (Lin 2001)

C[C@]12CC[C@H]3[C@@H](CCC4=CC(=O)CC[C@@]43C)[C@@H]1CC[C@@H]2O [Testosterone, testosterone]
papilla cell proliferation [1]: significantly decreased
ERK phosphorylation ([2]; a variety of cells, cited studies): increase

C[C@H](CS)C(=O)N1CCC[C@H]1C(=O)O [captopril]
TF antigen and mRNA [3]: decreased
total lesion area compared to placebo [4]: significantly decreased
increase in TF mRNA [5]: inhibited
cell size of macrophage derived foam cells ([6]; controls 130±5): did not change
heart rate ([6]; controls 376±6): 348+6 beats/min
decrease in fatty streak area ([6]; p=0.092 pravastatin, p=0.056 captopril): 35%
number of subendothelial macrophage derived foam cells ([7]; week 4: 87±9, p<0.05): 52±9 cell/mm^2
average size of a foam cell ([7]; week 4: 113±8, p<0.05): 89±5 μm^2
area of fatty streak ([7]; week 4: 125±18, p<0.05): 55±12 μm2×1,000
area of extracellular lipid particles ([7]; week 4: 144±27, not significant): 157±36 μm2×1,000

C/C=C/C/C=C/CCC(=O)[C@H]1O[C@H]1C(N)=O [cerulenin]
Rous sarcoma virus (RSV) production [8]: inhibited

C[C@@H]1C[C@@H]([C@H](O)CC2CC(=O)NC(=O)C2)C(=O)[C@@H](C)C1 [cycloheximide]
increase in AR mRNA [9]: 1.7 ± 0.4 fold

CCOC(=O)[C@H](CCc1ccccc1)N[C@@H](C)C(=O)N1CCC[C@H]1C(=O)O [enalapril]
total lesion area compared to placebo [4]: no significant decrease
changes in mean absolute diameter, minimum absolute diameter, percent diameter stenosis [10]: no significant difference

CCCCc1nc(Cl)c(CO)n1Cc1ccc(-c2ccccc2-c2nn[nH]n2)cc1 [losartan]
effect on plasma TF antigen levels [11]: negative effect

CCOC(=O)[C@H](CCc1ccccc1)N[C@@H](C)C(=O)N1[C@H](C(=O)O)C[C@@H]2CCC[C@@H]21 [ramipril]
rate of death from cardiovascular causes ([12]; 10 mg/day, 4.5 years, placebo 8.1%): 6.1%
rate of cardiac arrest ([12]; placebo 1.3%): 0.8%
rate of stroke ([12]; placebo 4.9%): 3.4%
rate of complications related to diabetes ([12]; placebo 7.6%): 6.4%
rate of heart failure ([12]; placebo 11.6%): 9.1%
rate of death from any cause ([12]; placebo 12.2%): 10.4%
rate of myocardial infarction ([12]; placebo 12.3%): 9.9%
rate of revascularization procedures ([12]; placebo 18.8%): 16.3%
RR, cardiac arrest ([12]; vs placebo): 0.62
RR, complications related to diabetes ([12]; vs placebo): 0.84
RR, death from any cause ([12]; vs placebo): 0.84
RR, death from cardiovascular causes ([12]; vs placebo): 0.74
RR, heart failure ([12]; vs placebo): 0.77
RR, myocardial infarction ([12]; vs placebo): 0.80
RR, revascularization procedures ([12]; vs placebo): 0.85
RR, stroke ([12]; vs placebo): 0.68
changes in thickness of the common carotid artery wall, or carotid plaque height [13]: no significant difference
progression slope of the mean maximum carotid intimal medial thickness (IMT) ([14]; 10 mg/day, placebo 0.0217±0.0027, p=0.0033): 0.0137±0.0024 mm/year
decrease in progression of carotid intima media thickness ([14]; at 4.5 years): 0.008 mm per year

CCOC(=O)[C@H](CCc1ccccc1)N[C@H]1CS[C@H](c2cccs2)CN(CC(=O)O)C1=O [temocapril]
increase in TF mRNA [15]: attenuated

IL-6: interleukin 6
AR mRNA [16]: decreased
ERK phosphorylation ([2]; LNCaP cells (Chen T 1999)): increased
